One assay relates to PPAR. The note with it: shown in US2006/0167012A1 and US2006/0205736A1; cited from earlier work.
The subject of the next assay is liver of NASH mice. Nature of the assay: Liver gene expression by Affymetrix microarray in NASH mice. The assay is classed as in vivo, C57B1/6J mice. The conditions noted are these: liver mRNA, 10 mg/kg/day, 35 days. As to the method: Gene expression was analyzed using Affynmatrix microarray followed by GOBY software analyses. Data (Table 5, below) represent average fold change in gene expression in the Compound 2/vehicle group.
Gene expression was analyzed using Affynmatrix microarray followed by GOBY software analyses. Data (Table 6, below) represent average fold change in gene expression in the Compound 2/vehicle group.
Animals were placed in Surgivet/ANESCO ISOTECY chamber (Vetequip Incorporated, Waukesha, Wis.) filled with Isoflurane (1-chloro-2,2,2-trifluoroethyl difluoromethyl ether, CAS#26675-46-7), USP Liquid for Inhalation (Baxter, Deerfield, Ill., Cat #10019-360-40) for anesthetization. Cardiac blood is taken with BD 1 mL Syringe Tuberculin Slip Tip (Becton, Dickinson & Company, Franklin Lakes, N.J., Cat #309602) with B-D25G 5/8 needle (Becton Dickinson, Franklin Lakes, N.J., Cat #305122) and was saved into Microtainer brand tube with EDTA (Becton, Dickinson and Company, Cat #365973). The heart, liver, kidney, adipose (white and brown) and muscle were collected using fine forceps and fine scissors. Tissues were stored in aluminum foils and flash frozen in liquid nitrogen for further analyses. ˜100 mg of heart, liver, adipose (white) were saved in tubes containing 1 mL RNAlater RNA Stabilization Reagent (Qiagen, Valencia, Calif., Cat #76106) and flash frozen in liquid nitrogen for gene array analyses. The liver, muscle and adipose (white) were fixed in 10% Zinc Formalin (Fisher Diagnostics, Middletown, Va., Cat#032-065, CAS #50-00-0) for histology analyses. In addition, the liver and muscle were frozen in Cryomold Standard Disposable Specimen Mold 25 mm×20 mm×5 mm (Sakura Finetechnical U.S.A., Inc., Torrance, Calif., Cat #4557) with O.C.T Compound (Sakura Finetechnical U.S.A., Inc., Torrance, Calif., Cat #4583) and frozen on dry ice mixed with 2-Methylbutane (Isopentane) (Sigma-Aldrich, St. Louis, Mo., CAS #78-78-4, Cat #270342-2L.
Total RNA was extracted using the RNeasy mini protocol (Qiagen, Cat: 74106), gene array analyses was performed using Mouse Genome 430.2.0 Affymetrix CHIP and VAMPIRE analyses software at the Veterans Affair, UCSD core facility, UCSD, San Diego, Calif.

Structures can show the parent of a compound that is named as a salt.

With `C[C@@H]1CN(Cc2ccc(OC(F)(F)F)cc2)C[C@H](C)N1S(=O)(=O)c1cccc2c1C[C@@H](C(=O)O)C2` [Compound 2, (S)-4-[cis-2,6-Dimethyl-4-(4-trifluoromethoxy-benzyl)-piperazine-1-sulfonyl]-indan-2-carboxylic acid tosylate], the PPAR modulator activity entry with PPAR is reported as “PPAR modulators”. For the same compound, the “S100 A6 (inflammatory marker) gene expression vs. vehicle” value with liver of NASH mice is given as “reduction”. In the assay with liver of NASH mice (4 hours post dosing, fed state), the “CD14 (Monocyte/Macrophage marker) gene expression, Fold change over vehicle” value is reported as −2 fold; the “GADD45 (Inflammatory marker) gene expression, Fold change over vehicle” value is given as 8 fold; the “ICAM 1 (Inflammatory marker) gene expression, Fold change over vehicle” value is listed as −2.1 fold; the “MARCO (Monocyte/Macrophage marker) gene expression, Fold change over vehicle” value is −2.5 fold. In the assay on liver of NASH mice (4 hours post dosing, fed state), the “Orosomucoid 2 (Acute Phase Reactant Protein) gene expression, Fold change over vehicle” value was −2.4 fold; the “Serum myeloid A1 (Acute Phase Reactant Protein) gene expression, Fold change over vehicle” value was −1.9 fold; the “Serum myeloid A2 (Acute Phase Reactant Protein) gene expression, Fold change over vehicle” value is −2.2 fold; the “CTGF gene expression, Fold change over vehicle” value is recorded as “Not changed”. For the same compound, in the assay with liver of NASH mice (4 hours post dosing, fed state), the “Col1a1 gene expression, Fold change over vehicle” value is −6.3 fold; the “Col1a2 gene expression, Fold change over vehicle” value was −3 fold; the “Col3a1 gene expression, Fold change over vehicle” value is reported as −3 fold; the “Col5a2 gene expression, Fold change over vehicle” value is reported as −2.2 fold. In addition, in the assay with liver of NASH mice (4 hours post dosing, fed state), the “Col6a2 gene expression, Fold change over vehicle” value is reported as −8.9 fold; the “Fibronectin gene expression, Fold change over vehicle” value was “Not changed”; the “Timp 1 gene expression, Fold change over vehicle” value is −4.5 fold; the “Timp 2 gene expression, Fold change over vehicle” value was “Not changed”. In the assay on liver of NASH mice (4 hours post dosing, fed state), the “Vimentin gene expression, Fold change over vehicle” value is −2.3 fold.

The record behind these values is patent US9463189B2 (BPV Holdings, LLC, priority 2007, dated 2016).
